For one assay, the system named is TPR-Met/NIH3T3 cells. Briefly: In-vivo test: subcutaneous TPR-Met/NIH3T3 tumour in Balb/C mice, tumour volume. The note with it: female Balb/C mice, 200 mg/kg daily by gastric tube, 9 days. How it is done: Experimental procedure: Female Balb/C mice (breeder: Charles River Wiga) were 5 weeks old on arrival. They were acclimatised to our keeping conditions for 7 days. Each mouse was subsequently injected subcutaneously in the pelvic area with 4 million TPR-Met/NIH3T3 cells in 100 μl of PBS (without Ca++ and Mg++).
Measurement of the tumour volume: The length (L) and breadth (B) were measured using a Vernier calliper, and the tumour volume was calculated from the formula L×B×B/2.
Keeping conditions: 4 or 5 animals per cage, feeding with commercial mouse food (Sniff).

Another assay concerns the target T1, Met kinase (Homo sapiens, UniProt P08581).
T1 construct: 6His (N); purchased Upstate 14-526; host or cells: insect cells (Sf21; S. frugiperda), baculovirus
Briefly: Met kinase inhibition (enzyme assay), flashplate method. The class given is biochemical. How it is done: Flashplate Method (Met Kinase)
The test plates used are 96-well Flashplate® microtitre plates from Perkin Elmer (Cat. No. SMP200). The components of the kinase reaction described below are pipetted into the assay plate. The Met kinase and the substrate poly Ala-Glu-Lys-Tyr, (PAGLT, 6:2:5:1), are incubated for 3 hrs at room temperature with radioactively labelled ^33P-ATP in the presence and absence of test substances in a total volume of 100 μl. The reaction is terminated using 150 μl of a 60 mM EDTA solution. After incubation for a further 30 min at room temperature, the supernatants are filtered off with suction, and the wells are washed three times with 200 μl of 0.9% NaCl solution each time. The measurement of the bound radioactivity is carried out by means of a scintillation measuring instrument (Topcount NXT, Perkin-Elmer).
The full value used is the inhibitor-free kinase reaction. This should be approximately in the range 6000-9000 cpm. The pharmacological zero value used is staurosporin in a final concentration of 0.1 mM. The inhibitory values (IC50) are determined using the RS1_MTS program.
Kinase reaction conditions per well: • 30 μl of assay buffer • 10 μl of substance to be tested in assay buffer with 10% of DMSO • 10 μl of ATP (final concentration 1 μM cold, 0.35 μCi of ^33P-ATP) • 50 μl of Met kinase/substrate mixture in assay buffer; (10 ng of enzyme/well, 50 ng of pAGLT/well)
Assay Buffer: • 50 mM HEPES • 3 mM magnesium chloride • 3 μM sodium orthovanadate • 3 mM manganese(II) chloride • 1 mM dithiothreitol (DTT) • pH=7.5 (to be set using sodium hydroxide)

T1 sequence (P08581 974-1390 limits assumed): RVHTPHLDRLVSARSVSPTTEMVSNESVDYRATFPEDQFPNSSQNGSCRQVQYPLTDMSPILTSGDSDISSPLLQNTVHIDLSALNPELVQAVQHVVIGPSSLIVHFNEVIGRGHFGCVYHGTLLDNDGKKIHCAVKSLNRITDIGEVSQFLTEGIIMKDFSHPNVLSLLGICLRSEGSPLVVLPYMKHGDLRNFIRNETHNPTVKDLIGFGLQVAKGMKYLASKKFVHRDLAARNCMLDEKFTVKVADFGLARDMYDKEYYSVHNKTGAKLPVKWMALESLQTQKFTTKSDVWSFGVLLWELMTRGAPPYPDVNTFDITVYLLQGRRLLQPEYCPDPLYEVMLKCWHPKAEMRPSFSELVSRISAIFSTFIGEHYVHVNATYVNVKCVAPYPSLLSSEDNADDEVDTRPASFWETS

Regarding `CN1CCN(CCCOC(=O)Nc2cccc(Cn3nc(-c4cc(F)cc(F)c4)ccc3=O)c2)CC1` [A91, 3-(4-Methylpiperazin-1-yl)propyl {3-[3-(3,5-difluorophenyl)-6-oxo-6H-pyridazin-1-ylmethyl]phenyl}carbamate], the “antitumoural action (tumour volume)” value in the assay on TPR-Met/NIH3T3 cells is reported as “significant antitumoural action”. For the same compound, the IC50 against Met kinase lay within 10 to 1000 nM.

A word on the IC50: it is the concentration that gives 50% inhibition.

Values taken from patent US8173653B2, “Pyridiazinone derivatives for the treatment of tumours” (Merck Patent Gesellschaft MIT Beschraenkter Haftung, priority 2005, dated 2012).
